Results reported in patent US20230128412A1, “METHODS FOR ENHANCING RECOMBINANT ADENO-[…] YIELD” (Ultragenyx Pharmaceutical Inc., priority 2020, published 2023).

How the values were obtained:
Type in all cases: cell-based
HeLa producer cells = assay: Effect of niacinamide concentration on rAAV production, HeLa producer cell lines, 24 deep-well plate; conditions: for normalized volumetric rAAV titer: Clade E and F rAAV
Procedure: (§1) In this example, the effect of various concentrations of niacinamide ranging from 0.1 mM to 40 mM on rAAV production was tested in a variety HeLa producer cell lines. The experiment was run in a 24 deep-well plate culture system with a 3 mL working volume, a seeding density of 0.2×10^6 cells in cell culture production medium, and an Ad5 multiplicity of infection (MOI) of 200 vp/cell. […] The capsid serotypes included in this analysis were AAV8, AAV9, rh10, and hu37.

[1] = tested on: HeLa producer cell line (AAVrh10-FIX); assay: Effect of vessel scale (24-DW vs 100 mL shake flask) with niacinamide on rAAV production; conditions: scale removed as a factor; all niacinamide concentrations
Procedure: In this example, the effect of scale using two common vessels (3 mL-deep well (“24-DW”) and 100 mL shake flask (“Flasks”)) with niacinamide on rAAV production was tested. The analysis was conducted using a HeLa producer cell line capable of producing a Clade E rAAV encoding a Factor IX transgene (AAVrh10-FIX). FIG. 3 depicts a bar graph showing rAAV titer (GC/mL) at varying niacinamide concentrations at the different scales. […] The scale and interaction factors were insignificant (p=0.3915 and p=0.1353 respectively).

[2] = tested on: HeLa clones (AAVrh10-FIX, AAV8-G6Pase, AAVhu37-FVIII); assay: Effect of niacinamide on rAAV production with Clade E HeLa clones; conditions: between 1 mM and 5 mM niacinamide; all four clones
Procedure: as §1
Four different HeLa clones were tested using the conditions described in Example 1. FIG. 4A-D show the rAAV titer (GC/mL) per varying niacinamide concentrations for Clone 1 (AAVrh10-FIX) follow-up supernatant, clone 2 (AAV8-G6Pase) supernatant, Clone 3 (AAV8-G6Pase) wide range with no supplement, and Clone 4 (AAVhu37-FVIII) wide range no supplement suspension (i.e., Triton-lysed sample), respectively.

[3] = tested on: HeLa producer cell line clones (AAV9-ATP7B); assay: Effect of niacinamide on rAAV production with Clade F HeLa clones, 2 L bioreactor; conditions: 3 mM niacinamide, both clones
Procedure: In this example, the effect of 3 mM niacinamide on two HeLa producer cell line clones expressing recombinant Clade F AAV encoding a truncated ATP7B transgene (AAV9-ATP7B) was examined in a 2 L bioreactor.

HEK293 cells (rAAV8-OTC) [4] = assay: Effect of niacinamide concentration on rAAV production with HEK293 cells
Procedure: In this example, the effect of various concentrations of niacinamide ranging from 0.03 mM to 30 mM on rAAV production was tested with HEK293 cells. The experiment was run in 30 mL flasks using a transfection density of 1.3×10^6 to 2.0×10^6 cells/mL. The HEK293 cells used in this experiment were transfected with plasmids enabling the production of rAAV8 encoding an ornithine transcarbamylase (rAAV8-OTC).

HEK293 cells (rAAV8-OTC) [5] = assay: Effect of additional compounds on rAAV production with HEK293 cells, 24 deep-well plates; conditions: for rAAV titers (summary statement): HEK293 cells
Excerpt: In this example, the effect of compounds other than niacinamide on rAAV production in HEK293 cells was examined. The compounds analyzed in this example included niacin, methyl nicotinate, myo-inositol, pantothenic acid, pyridoxine, choline, thiamine, glucosamine, caffeine, n-acetyl glucosamine, and thymidine.
The experiment was run in 24 deep-well plates using the same cells as described in Example 5 under similar transfection and culture conditions. The concentrations of each compound tested were 1 mM, 3 mM, and 9 mM. […] None of the other compounds tested provided a significant benefit to rAAV titer at any of the three concentrations tested.

[6] = niacinamide between 1 mM and 10 mM

## NC(=O)c1cccnc1 [niacinamide]
HeLa producer cells; fit of normalized titer data points, FIG. 2
  niacinamide concentration of predicted maximum rAAV titer (3rd-order polynomial fit): 5 mM
HeLa producer cells; niacinamide 0.1 mM to 10 mM, relative to no niacinamide
  normalized volumetric rAAV titer: Increases in rAAV titer
HeLa producer cells; [6]
  normalized volumetric rAAV titer (GC/mL), 3rd-order polynomial fit: Significant increases in rAAV titer
  normalized volumetric rAAV titer: most significant increases
[1]
  rAAV titer, Dunnett's Test: significance at all concentrations
[2]
  rAAV titer (GC/mL): titer increase
[3]
  rAAV titer: significant titer increase
HEK293 cells (rAAV8-OTC) [4]; 0.3 mM niacinamide, 30 mL flasks
  rAAV titer: increases in titer
HEK293 cells (rAAV8-OTC) [4]; 3 mM niacinamide, 30 mL flasks
  rAAV titer: increases in titer
HEK293 cells (rAAV8-OTC) [4]; repeat run at 2 L bioreactor scale (data not shown)
  rAAV titer: increase in titer
HEK293 cells (rAAV8-OTC) [5]; niacinamide versus the 11 compounds of Example 6
  level of benefit to rAAV titer compared with the other compounds: substantially and surprisingly superior to the other 11 compounds examined

## COC(=O)c1cccnc1 [methyl nicotinate]
HEK293 cells (rAAV8-OTC) [5]; 3 mM compound
  increase in titer: 42%
HEK293 cells (rAAV8-OTC) [5]
  rAAV titers (summary statement): can boost rAAV titers

## C[N+](C)(C)CCO [choline]
HEK293 cells (rAAV8-OTC) [5]; 3 mM compound
  increase in titer: 65%
HEK293 cells (rAAV8-OTC) [5]
  rAAV titers (summary statement): can boost rAAV titers

## OC1C(O)C(O)C(O)C(O)C1O (centres unmarked) [myo-inositol]
HEK293 cells (rAAV8-OTC) [5]; 3 mM compound
  increase in titer: approximately 20%
HEK293 cells (rAAV8-OTC) [5]; 9 mM compound
  increase in titer: approximately 20%
HEK293 cells (rAAV8-OTC) [5]
  rAAV titers (summary statement): can boost rAAV titers

## O=C(O)c1cccnc1 [niacin]
HEK293 cells (rAAV8-OTC) [5]; 1 mM compound
  increase in titer: 20%
HEK293 cells (rAAV8-OTC) [5]
  rAAV titers (summary statement): can boost rAAV titers
